Values of other authors, collected in patent US9120805B2, “Substituted pyrrolo[1,2-A]pyrazin-1-ones and pyrazolo[1,5-A]pyrazin-4-ones as inhibitors of tankyrase and poly(ADP-ribose)polymerase activity” (Merck Patent GmbH, priority 2012, dated 2015).

How the values were obtained:
[1] = tested on: DLD-1-cancer cells; settings: literature (Huang et al., 2009); cited from earlier work
[2] = tested on: β-catenin; settings: literature (Huang et al., 2009); by increasing AXIN1 and AXIN2 levels; cited from earlier work

In the case of `Oc1nc(-c2ccc(C(F)(F)F)cc2)nc2c1CSCC2` [XAV939], the “growth of DLD-1-cancer cells” value [1] is given as “inhibits growth” and the “Wnt-stimulated accumulation of β-catenin” value [2] is given as “blocked Wnt-stimulated accumulation of β-catenin”.
